For 46 molecules, IC (2-fold clotting time) results are on record in patent US3978045A, “N^2 -dansyl-L-arginine derivatives, and the pharmaceutically acceptable acid addition salts thereof” (priority 1973, dated 1976).

This test addresses T1, thrombin (Bos taurus, UniProt P00735).
T1 construct: mature alpha-thrombin (light plus heavy chain) cut from prothrombin
In words: Fibrinogen coagulation time (thrombin-induced clotting of fibrinogen). To be noted: bovine fibrinogen, borate saline buffer pH 7.4, thrombin 0.1 ml of 5 units/ml, 25°C; control coagulation time 50-55 seconds; read-out: Concentration required to prolong the coagulation time by a factor of 2. The format is biochemical. On the procedure: The antithrombotic activities of the N^2 -dansyl-L-arginine derivatives of this invention were compared with those of a known antithrombotic agent, (N^2 -(p-tolylsulfonyl)-L-arginine methyl ester). by determining the fibrinogen coagulation time. The measurement of the fibrinogen coagulation time was conducted as follows:
Immediately after mixing, the reaction mixture was transferred from the ice bath to a bath thermostated at 25°C. Coagulation times were taken as the period between the time of transference to the 25°C bath and the time of the first appearance of fibrin threads.
The term "concentration required to prolong the coagulation time by a factor of two" is the concentration of an active ingredient required to prolong the normal coagulation time 50-55 seconds to 100-110 seconds.

Counter-ions that a name gives are not always drawn. Non-standard residues stand in square brackets, D forms with d. Residues, ends and D or L forms follow the SMILES beside them. ξ: configuration not given here. *: point of attachment. Dansyl = CN(C)c1cccc2c(S(=O)(=O)*)cccc12; Pyrrolidide = C1CCN(*)C1; ξP = O=C(O)C1CCCN1; Sar = CNCC(=O)O Where only a bound is given, the exact number is not on record here.

Take `CCOC(=O)[C@H](CCCNC(=N)N)NS(=O)(=O)c1cccc2c(N(C)C)cccc12` [Sample 2, N^2 -dansyl-L-arginine ethyl ester dihydrochloride]: the IC (2-fold clotting time) was found to be 8 µM.
Under `CCCOC(=O)[C@H](CCCNC(=N)N)NS(=O)(=O)c1cccc2c(N(C)C)cccc12` [Sample 3, N^2 -dansyl-L-arginine n-propyl ester] stands 2 µM; under `CC(C)OC(=O)[C@H](CCCNC(=N)N)NS(=O)(=O)c1cccc2c(N(C)C)cccc12` [Sample 4, N^2 -dansyl-L-arginine isopropyl ester dihydrochloride], 30 µM.
Under `CC(C)COC(=O)[C@H](CCCNC(=N)N)NS(=O)(=O)c1cccc2c(N(C)C)cccc12` [Sample 6, N^2 -dansyl-L-arginineisobutyl ester di(p-toluene sulfonate)] stands 110 µM; under `CC=CCOC(=O)[C@H](CCCNC(=N)N)NS(=O)(=O)c1cccc2c(N(C)C)cccc12` [Sample 12, N^2 -dansyl-L-arginine crotyl ester], 2 µM; under `C#CCCOC(=O)[C@H](CCCNC(=N)N)NS(=O)(=O)c1cccc2c(N(C)C)cccc12` [Sample 13, N^2-dansyl-L-arginine 3-butynyl ester], 4 µM.
With `CN(C)c1cccc2c(S(=O)(=O)N[C@@H](CCCNC(=N)N)C(=O)OC3CCCCC3)cccc12` [Sample 14], the IC (2-fold clotting time) turned out to be 60 µM.
Under `CN(C)c1cccc2c(S(=O)(=O)N[C@@H](CCCNC(=N)N)C(=O)OCC3CCCO3)cccc12` (stereo partly shown) [Sample 15] stands 20 µM; under `COCCOC(=O)[C@H](CCCNC(=N)N)NS(=O)(=O)c1cccc2c(N(C)C)cccc12` [Sample 16, N^2-dansyl-L-arginine 2-methoxyethyl ester], 5 µM; under `CN(C)c1cccc2c(S(=O)(=O)N[C@@H](CCCNC(=N)N)C(=O)OCCCCCl)cccc12` [Sample 18, N^2-dansyl-L-arginine 4-chlorobutyl ester], 7 µM.
In the case of `CCC(COC(=O)[C@H](CCCNC(=N)N)NS(=O)(=O)c1cccc2c(N(C)C)cccc12)[N+](=O)[O-]` (stereo partly shown) [Sample 19] it was 200 µM; in that of `CCNC(=O)[C@H](CCCNC(=N)N)NS(=O)(=O)c1cccc2c(N(C)C)cccc12` [Sample 20, N^2 -dansyl-N-ethyl-L-argininamide monohydrate], 100 µM.
In the case of `CCCNC(=O)[C@H](CCCNC(=N)N)NS(=O)(=O)c1cccc2c(N(C)C)cccc12` [Sample 21, N^2 -dansyl-N-(n-propyl)-L-argininamide monohydrate] it was 15 µM; in that of `CCCCNC(=O)[C@H](CCCNC(=N)N)NS(=O)(=O)c1cccc2c(N(C)C)cccc12` [Sample 22, N^2 -dansyl-N-(n-butyl)-L-argininamide monohydrate], 25 µM.
In the case of `CCCCCNC(=O)[C@H](CCCNC(=N)N)NS(=O)(=O)c1cccc2c(N(C)C)cccc12` [Sample 23], the IC (2-fold clotting time) was determined as 125 µM.
`CCCCCCNC(=O)[C@H](CCCNC(=N)N)NS(=O)(=O)c1cccc2c(N(C)C)cccc12` [Sample 24, N^2 -dansyl-N-(n-hexyl)-L-argininamide monohydrate]: the IC (2-fold clotting time) was found to be 20 µM.
For the molecule `CCCCCCCNC(=O)[C@H](CCCNC(=N)N)NS(=O)(=O)c1cccc2c(N(C)C)cccc12` [Sample 25, N^2 -dansyl-N-(n-heptyl)-L-argininamide], the IC (2-fold clotting time) turned out to be 100 µM.
In the case of `CC(C)NC(=O)[C@H](CCCNC(=N)N)NS(=O)(=O)c1cccc2c(N(C)C)cccc12` [Sample 26, N^2 -dansyl-N-isopropyl-L-argininamide] it was 1000 µM; in that of `CC(C)CNC(=O)[C@H](CCCNC(=N)N)NS(=O)(=O)c1cccc2c(N(C)C)cccc12` [Sample 27, N^2 -dansyl-N-isobutyl-L-argininamide], 100 µM.
In the case of `COCCNC(=O)[C@H](CCCNC(=N)N)NS(=O)(=O)c1cccc2c(N(C)C)cccc12` [Sample 28, N^2-dansyl-N-(2-methoxyethyl)-L-argininamide dihydrate] it was 4 µM.
Under `COCCCNC(=O)[C@H](CCCNC(=N)N)NS(=O)(=O)c1cccc2c(N(C)C)cccc12` [Sample 29] stands 65 µM; under `CCOCCNC(=O)[C@H](CCCNC(=N)N)NS(=O)(=O)c1cccc2c(N(C)C)cccc12` [Sample 30, N^2-dansyl-N-(2-ethoxyethyl)-L-argininamide], 5 µM.
Consider `CCOC(=O)CNC(=O)[C@H](CCCNC(=N)N)NS(=O)(=O)c1cccc2c(N(C)C)cccc12` [Sample 31, N^2-dansyl-N-(2-ethoxycarbonylmethyl)-L-argininamide diacetate] (Dansyl-Arg-Gly-OEt), for which the IC (2-fold clotting time) stood at 160 µM.
With `COC(=O)CCNC(=O)[C@H](CCCNC(=N)N)NS(=O)(=O)c1cccc2c(N(C)C)cccc12` [Sample 32, N^2-dansyl-N-(2-methoxycarbonylethyl)-L-argininamide], the IC (2-fold clotting time) is 22 µM.
Under `CCOC(=O)CCNC(=O)[C@H](CCCNC(=N)N)NS(=O)(=O)c1cccc2c(N(C)C)cccc12` [Sample 33, N^2-dansyl-N-(2-ethoxycarbonylethyl)-L-argininamide diacetate] stands 5 µM; under `CCOC(=O)CCCNC(=O)[C@H](CCCNC(=N)N)NS(=O)(=O)c1cccc2c(N(C)C)cccc12` [Sample 34], 500 µM; under `C=CCNC(=O)[C@H](CCCNC(=N)N)NS(=O)(=O)c1cccc2c(N(C)C)cccc12` [Sample 35, N^2 -dansyl-N-allyl-L-argininamide], 10 µM.
Turning to `CN(C)c1cccc2c(S(=O)(=O)N[C@@H](CCCNC(=N)N)C(=O)NC3CC3)cccc12` [Sample 36], the IC (2-fold clotting time) was found to be 200 µM.
Under `CN(C)c1cccc2c(S(=O)(=O)N[C@@H](CCCNC(=N)N)C(=O)NCC3CCCCC3)cccc12` [Sample 37, N^2 -dansyl-N-cyclohexylmethyl-L-argininamide] stands 40 µM.
In the case of `CN(C)c1cccc2c(S(=O)(=O)N[C@@H](CCCNC(=N)N)C(=O)Nc3ccccc3)cccc12` [Sample 38] it was 100 µM; in that of `CN(C)c1cccc2c(S(=O)(=O)N[C@@H](CCCNC(=N)N)C(=O)NCc3ccccc3)cccc12` [Sample 39], 50 µM.
In the case of `CN(C)c1cccc2c(S(=O)(=O)N[C@@H](CCCNC(=N)N)C(=O)NCCc3ccccc3)cccc12` [Sample 40, N^2 -dansyl-N-(β-phenylethyl)-L-argininamide dihydrate] it was 150 µM.
As to `CN(C)c1cccc2c(S(=O)(=O)N[C@@H](CCCNC(=N)N)C(=O)NCCCc3ccccc3)cccc12` [Sample 41], the IC (2-fold clotting time) was 27 µM.
As to `CN(C)c1cccc2c(S(=O)(=O)N[C@@H](CCCNC(=N)N)C(=O)NCCC(=O)Nc3ccccc3)cccc12` [Sample 42, N^2-dansyl-N-(2-phenylcarbamoylethyl)-L-argininamide diacetate], the IC (2-fold clotting time) is above 500 µM.
In the case of `CN(C)c1cccc2c(S(=O)(=O)N[C@@H](CCCNC(=N)N)C(=O)NCC(=O)N3CCCC3)cccc12` [Sample 43] (Dansyl-Arg-Gly-Pyrrolidide) it was 370 µM; in that of `CCN(CC)C(=O)[C@H](CCCNC(=N)N)NS(=O)(=O)c1cccc2c(N(C)C)cccc12` [Sample 45, N^2 -dansyl-N,N-diethyl-L-argininamide diacetate], 55 µM.
In the case of `CCCCN(CCCC)C(=O)[C@H](CCCNC(=N)N)NS(=O)(=O)c1cccc2c(N(C)C)cccc12` [Sample 46] it was 39 µM.
In the case of `CCCCN(C)C(=O)[C@H](CCCNC(=N)N)NS(=O)(=O)c1cccc2c(N(C)C)cccc12` [Sample 47, N^2 -dansyl-N-(n-butyl)-N-methyl-L-argininamide diacetate] it was 2 µM; in that of `CCCCN(CC)C(=O)[C@H](CCCNC(=N)N)NS(=O)(=O)c1cccc2c(N(C)C)cccc12` [Sample 48], 50 µM.
Turning to `CCOC(=O)CN(C)C(=O)[C@H](CCCNC(=N)N)NS(=O)(=O)c1cccc2c(N(C)C)cccc12` [Sample 49] (Dansyl-Arg-[Sar]-OEt), the IC (2-fold clotting time) came to 59 µM.
In the case of `COC(=O)CCN(C)C(=O)[C@H](CCCNC(=N)N)NS(=O)(=O)c1cccc2c(N(C)C)cccc12` [Sample 50, N^2-dansyl-N-methyl-N-(2-methoxycarbonylethyl)-L-argininamide] it was 2.5 µM.
Under `CCOC(=O)CCN(C)C(=O)[C@H](CCCNC(=N)N)NS(=O)(=O)c1cccc2c(N(C)C)cccc12` [Sample 51] stands 15 µM.
Under `CN(Cc1ccccc1)C(=O)[C@H](CCCNC(=N)N)NS(=O)(=O)c1cccc2c(N(C)C)cccc12` [Sample 52, N^2 -dansyl-N-methyl-N-benzyl-L-argininamide] stands 7 µM; under `CN(C)c1cccc2c(S(=O)(=O)N[C@@H](CCCNC(=N)N)C(=O)N3CCCC3)cccc12` [Sample 53, 1-(N^2-dansyl-L-arginyl)pyrrolidine diacetate], 3.3 µM; under `CCOC(=O)C1CCCN1C(=O)[C@H](CCCNC(=N)N)NS(=O)(=O)c1cccc2c(N(C)C)cccc12` (stereo partly shown) [Sample 54] (Dansyl-Arg-[ξP]-OEt), 780 µM.
With `CN(C)c1cccc2c(S(=O)(=O)N[C@@H](CCCNC(=N)N)C(=O)N3CCCCC3)cccc12` [Sample 55, 1-(N^2-dansyl-L-arginyl)piperidine diacetate], the IC (2-fold clotting time) is 0.9 µM.
